Like-named read-outs stand apart in the source and are kept apart here.
Columns and labels:
[1] = test system: activité tyrosinase de mélanocytes humains normaux; assay: Tyrosinase activity of cultured normal human melanocytes after 72 h treatment (L-Dopa substrate, absorbance 450 nm); assay type: cell-based; conditions: Melanocyte, read-out: Stimulation de l'activité tyrosinase
Procedure: Des mélanocytes épidermiques humains normaux sont cultivés (9ème passage) dans le milieu "mélanocytes growth medium M2" additionné Des compléments Promocell C24300. De pénicilline 50 UI/ml et de streptomycine 50 µg/ml (Invitrogen) dans des conditions classiques de température (37°C) sous 5% de CO2.
Le composé 5 est solubilisé dans de l'éthanol absolu (PGE2) ou dans du DMSO (inhibiteurs de 15-PGDH). Le titre final des solutions préparées est de 10 mM. Les concentrations finales testées varient de 0.1 à 10 µM (PGE2) et 1 à 10 µM (inhibiteurs de 15-PGDH).
Les essais réalisés consistent à mesurer l'effet d'inhibiteur de 15-PGDH seul ou associé à PGE2* sur l'activité globale de la tyrosinase. * PGE2 est un modulateur de pigmentation désactivé par l'enzyme 15-PGDH.
Les mélanocytes sont cultivés en plaques 96 puits jusqu'à confluence (conditions de culture décrites en a), puis le surnageant de chacun des puits est éliminé et remplacé par du milieu contenant les composés à évaluer.
Soit donc (en triplicate) l' inhibiteur de 15-PGDH seul à 1 µM et 10 µM ou pour chacune de ces premières conditions en présence de 0.1 µM, 1 µM ou 10 µM de PGE2.
Dans ces différentes conditions les cultures sont maintenues 72h00, les surnageants sont ensuite éliminés, les tapis cellulaires sont lavés avec un tampon phosphate (pH=7.2). Les cellules sont lysées avec un tampon phosphate pH=7.2 contenant 1% de triton X100.
L'activité tyrosinase de chacun des lysats est ensuite estimée contre une gamme tyrosinase de champignon (Sigma T7755).
La méthodologie mise en oeuvre utilise la L-Dopa comme substrat de réaction (45 min à 37°C), la formation de mélanine est appréciée par mesure de l'absorbance à 450 nm.
Dans ce test, deux références sont également évaluée: l'acide kojique (un inhibiteur de tyrosinase introduite à 0.1% dans le milieu de culture) et l'isobutyle méthyle xanthine (IBMX) un inhibiteur de phosphodiesterase qui limitant le catabolisme de l'AMPc contribue à l'augmentation de l'activité tyrosinase globale telle qu'appréciée dans ce test.

[2] = molecular target: T1, 15-PGDH de type 1 (Homo sapiens, UniProt P15428); assay: Test on 15-PGDH type 1: spectrophotometric enzyme inhibition at 340 nm (NAD, PGE2 substrate); assay type: biochemical
T1 construct: made in house
T1 sequence (P15428 1-266): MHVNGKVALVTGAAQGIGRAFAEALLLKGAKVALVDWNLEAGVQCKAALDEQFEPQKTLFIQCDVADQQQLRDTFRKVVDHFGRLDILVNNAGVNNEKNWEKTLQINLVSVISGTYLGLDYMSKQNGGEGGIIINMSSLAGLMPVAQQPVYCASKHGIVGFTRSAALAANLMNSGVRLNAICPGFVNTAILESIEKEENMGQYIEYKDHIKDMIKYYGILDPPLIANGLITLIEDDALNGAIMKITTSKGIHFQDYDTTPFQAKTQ
Procedure: L'enzyme 15-PGDH est obtenue comme décrit dans la demande FR 02/05067 déposée au nom de L'Oréal, en suspension dans un milieu adapté à une concentration de 0,3 mg/mL puis bloquée à - 80°C. Pour les besoins du test, cette suspension est décongelée et stockée dans de la glace.
Par ailleurs on prépare un tampon Tris 100 mM, pH = 7,4, contenant 0,1 mM de dithiothréitol (D5545, Sigma-Aldrich, L'isle D'Abeau Chesne, BP 701, 38297, Saint Quentin Fallavier), 1,5 mM de β-NAD (N6522, Sigma-Aldrich, L'isle D'Abeau Chesne, BP 701, 38297, Saint Quentin Fallavier), 50 µM de Prostaglandine E2 (P4172, Sigma-Aldrich, L'isle D'Abeau Chesne, BP 701, 38297, Saint Quentin Fallavier).
Dans la cuve d'un spectrophotomètre (Perkin-Elmer, Lambda 2) thermostaté à 37°C, dont la longueur d'onde de mesure est réglée à 340 nm, sont introduits 0,965 ml de ce tampon (préalablement porté à 37°C). 0,035 mL de suspension enzymatique à 37°C sont introduits dans la cuve concomitamment à l'enregistrement ( correspondant à une augmentation de la densité optique à 340 nm). La vitesse maximale de réaction est relevée.

inhibition at 100 µM [2] | SMILES | further results
– | CC(C)(C)c1ccc(Oc2ccccc2/C=C2\SC(=O)NC2=O)cc1 [Composé 4] | activation at 1 µM [1]: 16%
– | CCCCC[C@H](O)/C=C/[C@H]1[C@H](O)CC(=O)[C@@H]1C/C=C\CCCC(=O)O [PGE2, Prostaglandine E2] | activation at 0.1 µM ([1]; PGE2 alone at 0,1 µM): 3%; activation at 1 µM ([1]; PGE2 alone at 1 uM): 9%; activation at 10 µM ([1]; PGE2 alone at 10 uM): 15%
48% | O=C1NC(=O)/C(=C/c2ccccc2Oc2ccc(F)cc2)S1 [compound 6] | –
23% | CCN1C(=O)S/C(=C\c2ccccc2Oc2ccc(C(C)(C)C)cc2)C1=O [compound 13] | –
27% | CC(C)(C)CC(C)(C)c1ccc(Oc2ccccc2/C=C2/SC(=O)NC2=O)cc1 [compound 15] | –
30% | CC(C)(C)c1ccc(Oc2ccccc2/C=C2\SC(=O)NC2=O)c(C(C)(C)C)c1 [compound 17] | –

Source: EP1738741A2, “Use of benzylidene-1,3-thiazolidine-2,4-diones for favouring and/or inducing and/or stimulating the pigmentation of keratinic materials and/or for limiting their depigmentation and/or their bleaching” (L'ORÉAL, priority 2005, dated 2007)
